# Reference: patent US7771426B2, “Bone treatment instrument and method” (University Health Network, priority 2004, dated 2010)
# Entries after “also recorded” stand apart in the source; their conditions may differ.
# Assays:
# [1] = BPD uptake in the serum and spinal cord (fluorimetry, fluorescent microscopy); format: in vivo, rats (Sprague-Dawley)
# Description: Method: BPD-MA was administered to 10 rats (Sprague-Dawley, 150 gm) through a tail vein injection. Animals were then sacrificed using CO2 inhalation overdose at 16 minutes, 3 hrs, 6 hrs and 24 hrs following injection. Control animals without BPD-MA were euthanized in a similar fashion. Serum samples and spinal cord tissue samples were harvested from the animals at the time of euthanasia. A segment of spine was also fixed in 10% formalin for 7 days followed by decalcification for 7 days in 10% formic acid for fluoroscopic microscopic analysis. A control assay determined that BPD-MA fluorescence was not affected by formic acid. BPD-MA concentration within the serum and spinal cord tissue was then determined using fluorimetry. Briefly, the samples were solubilized and the samples were tested with excitation and emission spectra specific to BPD-MA. The fluorescence of the drug within the tissue was correlated to the specific uptake of the drug within the tissue. Fluorescent microscopy was also used to visualize the presence or absence of BPD-MA within the vertebrae and spinal cord at 1 hour, 3 hours and 24 hours.
# [2] = Effect of light dose on the rat spinal cord, spinal nerves and peripheral nerves (hind leg paralysis); format: in vivo, mu/mu nude rats
# From the text: (§1) Method: Thirty mu/mu nude rats were used in this part of the study. The rats received a left ventricular intracardiac injection with MT-1 cells as described earlier. At day 21 post injection each animal was anesthetized with 2% halothane/air mixture and placed on a custom made radiolucent stereotactic jig in the left lateral decubitus position. Prior to this it was established by histological methods that animals with tumors contained tumor in most vertebral bodies and long bones. Because lesions within the vertebral bodies could not be detected by fine detail radiography, T12 and L4 vertebrae were selected as representative levels for treatment. An 18 g needle was placed on the cortex of the targeted vertebrae or long bone with the use of a mini C-arm image intensifier. A 300 mW diode laser coupled to a 200 um fiber was used to deliver 690 nm light. BPD-MA was administered intravenously at a dose of 2 mg/kg prior to the administration of the light dose. […] Light doses ranged from 25 J to 150 J. Light was delivered at 150 mW for all treatments and the effects of different drug light intervals and different light doses using a fixed drug concentration were evaluated. The animals were examined for paralysis post treatment. The animals were sacrificed using CO2 inhalation. Vertebrae were then harvested and fixed in 10% formalin for 7 days. Micro-CT images were obtained and then the samples were decalcified in 10% formic acid for 7 days. The tissue was then blocked and paraffin embedded and 10 um sections were cut. The sections were analyzed under light microscopy using H&E staining as well as TUNEL and human EGF-r immunohistochemistry. The area of effect as denoted by necrosis and apoptosis was identified and measured using a Nikon slide scanner and Image Pro software.
# [3] = tested on: MT-1 cells; test: PDT effect on in vitro MT-1 cells (SRB assay); format: cell-based, human
# Description: Method: MT-1 cells were grown and maintained in RPMI media containing penicillin and streptomycin with 10% fetal bovine serum at 37 degrees Celsius. Once the cells had reached subconfluence they were resuspended in free RPMI. The cells were harvested using 0.05% trypsin—0.05 mM EDTA solution. Cells were then counted with a hemocytometer and plated at 2×10^5 cells/ml in a 96 well plate. BPD-MA was then added to the individual wells at a concentration of 1 ug/ml or 10 ug/ml. […] Following treatment the cells were allowed to survive for 24 hours following which an SRB assay was performed to establish the number of viable cells remaining. Briefly, cells were fixed in 10% trichloroacetic acid and stained with a […] solution selectively staining viable cells. A spectrophotometer was then used to assess the absorbance of 540 nm light within individual wells of the 96 well plate which was correlated to the number of remaining cells following treatment.
# [4] = pig, in vivo
# Description: In this study, 50 kg pigs were used. The pigs were pre-anesthetized with ketamine/xylazine 20/2 mg/Kg IM for induction. An IV line was established and 0.9% saline solution was run at 5 ml/Kg/hr. Verteporfin was administered through the IV line using an infusion pump. The pigs were intubated and maintained on a ventilator with isofluorane/nitrous oxide inhalant by animal care professionals. The pigs were placed prone on a radiolucent surgical table with appropriate bolsters for support and padding. A sterile prep was made with betadine soap and scrub and prep solution. A small stab incision was made over the lumbothoracic spine of the pig.
# Placement into the vertebral body through a transpedicular and parapedicular approach was facilitated by the use of a CT-Carm. The L1 and L2 vertebrae were targeted.
# A cannulated exchange sheath was placed over the guide rod and inserted through the incision. The guide rod was then removed, and a fiber optic cable sheath was then inserted down the cannula of the exchange sheath. […] The cannulated bone screw assembly was pushed down the cannulated exchange sheath. […]
# Detector and diffusing fibers were placed in the same transverse plane. The diffusing fiber was moved incrementally with respect to the detector fiber and differences in power were measured at five different distances from the detector source using a computer aided photomultiplier tube. […]
# [5] = tested on: MT-1luc+ metastatic lesions; test: Targeted bioluminescent lesions, pre and post-PDT bioluminescent imaging; format: in vivo, nude mu/mu rats
# Description: Method: Twenty nude mu/mu (Harlan) female rats (4-6 weeks of age) were used in this part of the study. The protocol was in accordance with the Canadian Council on Animal Care prior to initiation. Prior to injection each animal was anesthetized with 2% halothane/air mixture in a sterile environment. Twenty animals were used for injection. The chest was prepared with alcohol and 2×10^6 MT-1luc+ cells, a human breast cancer cell line carrying the luciferase reporter gene, were injected into the left ventricle using a 1 ml syringe with a 26 g needle. Pulsatile blood in the syringe was ensured prior to each injection. The animals were placed back into their cages and fed water and rat chow ad libitum. At day 18 the animals were imaged using the Xenogen IVIS system. To do this 100 mg/kg luciferin was injected into the peritoneal cavity of each animal and each animal was imaged 5 minutes following injection for a 1 to 5 minute image acquisition period. The animals were then imaged on the same custom made stereotactic radiolucent jig using a mini-C-arm image intensifier which allowed correlation of the bioluminescent signal to the vertebrae. FIGS. 1A-C show stereotactic targeting of bioluminescent metastatic lesions using a mini-C-arm image intensifier. FIG. 1A is a bioluminescent overlay image of a nude rat with metastatic lesions on a radio lucent stereotactic jig. FIG. 1B is a fluoroscan image of markers placed along the grid of the stereotactic jig in correlation to the bioluminescent metastases and resulting in localization of the lesion.
# The lesions were then targeted and treated with 25 J or 150 J at a 3 hour drug light interval. The animals were then re-imaged with the Xenogen IVIS system 48 hours post treatment in the stereotactic frame. Signal intensity (photons/second/cm^2) at the targeted site before treatment was compared to signal intensity following treatment and compared to lesions not treated using Igor Pro software (Alameda, Calif.). The animals were then sacrificed using CO2 inhalation and the spines and long bones were harvested. Samples were placed in 10% formalin for 7 days and micro-CT images of the vertebrae and long bones were obtained. The vertebrae were examined histologically using H&E staining and immunohistologically with human EGF-r and TUNEL stains as described earlier. ANOVA Bonferroni and two-tailed paired T-test statistical techniques were applied.
# [6] = Treatment groups: deaths of rats; format: in vivo, mu/mu nude rats
# [7] = tested on: MT-1 cells, a human breast cancer cell line; test: Effect of PDT in vertebrae and long bones with metastases (area of effect, histology); format: in vivo, mu/mu nude rats
# From the text: as §1
# [8] = tested on: orthotopic chondrosarcoma and fibrosarcoma tumor models; conditions: 4 weeks post treatment; 15 minute and 3 hour drug light interval; cited from earlier work
# [9] = 25 J, drug-light interval 3 hrs
# [10] = 50 J, drug-light interval 3 hrs
# [11] = 75 J, drug-light interval 0.75 hrs
# [12] = 75 J, drug-light interval 3 hrs
# [13] = 100 J, drug-light interval 3 hrs
# [14] = 150 J, drug-light interval 3 hrs
substance,measurement,setting,value
benzoporphyrin derivative monoacid ring A [BPD-MA],BPD-MA fluorescence in bone marrow,[1]; 1 hour,contained signal
same,BPD-MA fluorescence in spinal cord,[1]; 1 hour,no drug being present
same,BPD-MA fluorescence in bone marrow,[1]; 3 hours,intense signal
same,BPD-MA fluorescence in spinal cord,[1]; 3 hours,intense signal
same,fluorescence of the drug within the spinal cord and vertebrae,[1]; 24 hours,returned to baseline levels
same,serum drug concentration,[1]; after 3 hours,began to decline
same,serum drug concentration,[1]; by 24 hours post injection,returned to baseline
same,uptake of BPD-MA in spinal cord,[1]; drug uptake studies (fluorimetry),minimal uptake
same,delay of uptake into the spinal cord,[1]; fluorescence microscopy,greater than 1 hour
same,serum drug concentration,[1]; over 15 minutes post tail vein injection,rapid increase
same,Hind Leg Paralysis (animals),"[2]; 25 J, T12, drug light interval 3 hr, N = 5",0
same,Hind Leg Paralysis (animals),"[2]; 50 J, T12, drug light interval 3 hr, N = 5",2 unilateral
same,Hind Leg Paralysis (animals),"[2]; 75 J, T12, drug light interval 3 hr, N = 4",1 bilateral
same,Hind Leg Paralysis (animals),"[2]; 100 J, T12, drug light interval 3 hr, N = 3",2 unilateral
same,Hind Leg Paralysis (animals),"[2]; 125 J, T12, drug light interval 3 hr, N = 2",1 bilateral
same,Hind Leg Paralysis (animals),"[2]; 150 J, T12, drug light interval 0.25 hr, N = 4",4
same,Hind Leg Paralysis (animals),"[2]; 150 J, T12, drug light interval 3 hr, N = 4",3 bilateral
same,"Mean (absorbance), SRB assay","[3]; Group 1: drug 1 ug/ml, light 200 J/cm^2, 690 nm, 8 hour incubation",.2923
same,"Mean (absorbance), SRB assay","[3]; Group 2: drug 1 ug/ml, light 25 J/cm^2",.1946
same,"Mean (absorbance), SRB assay","[3]; Group 3: drug 10 ug/ml, light 200 J/cm^2",.2558
same,"Mean (absorbance), SRB assay","[3]; Group 4: drug 10 ug/ml, light 25 J/cm^2",.2049
same,"Mean (absorbance), SRB assay","[3]; Group 7: drug 1 ug/ml, no light",1.2392
same,difference in absorbance versus untreated wells,[3]; drug only,No significant difference
same,difference in absorbance versus untreated wells,[3]; wells treated with light and drug,significant difference
same,complications attributed to the PDT,[4],no hindleg paralysis
same,decrease in tumor growth compared to control lesions,"[5]; 25 J, 3 hour drug light interval",66%
same,"PostRx/PreRx, Rx Area",[5]; [9],1.25
same,reduction of bioluminescent signal from the targeted site,"[5]; 150 J, 3 hour drug light interval, 48 hours following treatment",87%
same,decrease in tumor growth compared to control lesions,"[5]; 150 J, 3 hour drug light interval, one treatment",99.8%
same,"PostRx/PreRx, Rx Area","[5]; 150 J, drug light interval 3 hrs",0.139
same,Mean Count Rx Area,"[5]; Post-PDT (48 hours), 25 J, drug-light interval 3 hrs",2.33 × 10^4
same,Mean Count Rx Area,"[5]; Post-PDT (48 hours), 150 J, drug light interval 3 hrs",1.42 × 10^3
same,Mean Count Rx Area,"[5]; Pre-PDT, 25 J, drug-light interval 3 hrs (n = 2)",1.86 × 10^4
same,Mean Count Rx Area,"[5]; Pre-PDT, 150 J, drug light interval 3 hrs (n = 5)",1.02 × 10^4
same,Death During PDT (animals),"[6]; MT-1 group, n = 20",0
same,Death Following Verteporfin Injection (animals),"[6]; MT-1 group, n = 20",1
same,Death During PDT (animals),"[6]; MT-1luc+ group, n = 30",1
same,Death Following Verteporfin Injection (animals),"[6]; MT-1luc+ group, n = 30",2
same,Antero-Posterior dimension of effect,[7]; [9],2.62 mm
same,Rostral-Caudal dimension of effect,[7]; [9],4.59 mm
same,Area of effect,"[7]; 25 J, drug-light interval 3 hrs, 2 mg/kg i.v.",8.435 mm^2
same,Antero-Posterior dimension of effect,[7]; [10],3.89 mm
same,Area of effect,[7]; [10],15.04 mm^2
same,Rostral-Caudal dimension of effect,[7]; [10],5.66 mm
same,Antero-Posterior dimension of effect,[7]; [11],5.05 mm
same,Area of effect,[7]; [11],82.47 mm^2
same,Rostral-Caudal dimension of effect,[7]; [11],17.47 mm
same,Antero-Posterior dimension of effect,[7]; [12],5.09 mm
same,Area of effect,[7]; [12],52.38 mm^2
same,Rostral-Caudal dimension of effect,[7]; [12],11.67 mm
same,Antero-Posterior dimension of effect,[7]; [13],5.05 mm
same,Area of effect,[7]; [13],45.49 mm^2
same,Rostral-Caudal dimension of effect,[7]; [13],13.8 mm
same,Antero-Posterior dimension of effect,[7]; [14],5.78 mm
same,Area of effect,[7]; [14],80.53 mm^2
same,Rostral-Caudal dimension of effect,[7]; [14],13.05 mm
same,diameter of largest area of effect,"[7]; 200 um fiber optical cable, treatment time 16 minutes",2.2 cm
same,ablation of tumor tissue,[7]; 24 hour drug light interval,No effect; also recorded: no difference
same,"effect on tumor, bone, bone marrow or spinal cord","[7]; drug only, no light",did not affect
same,lesions completely ablated,[8],33%
